Experimental data published in ChEMBL document CHEMBL5360534, “Synthetic α-glucosidase inhibitors as promising anti-diabetic agents: Recent developments and future challenges” (Eur J Med Chem, 2023).
pIC50, pKi: −log10 of the molar value.

What was measured:
Alpha-glucosidase [1] = target: T1, Alpha-glucosidase (Saccharomyces cerevisiae S288c, UniProt P53341+P38158+P07265); assay: Inhibition of Saccharomyces cerevisiae alpha-glucosidase using pNPG as substrate by spectroscopic analysis; format: protein assay
Alpha-glucosidase [2] = target: T1, Alpha-glucosidase; assay: Inhibition of Saccharomyces cerevisiae alpha-glucosidase using pNPG as substrate; format: protein assay
Alpha-glucosidase [3] = target: T1, Alpha-glucosidase; assay: Competitive inhibition of Saccharomyces cerevisiae alpha-glucosidase using pNPG as substrate assessed as inhibition constant; format: protein assay
[4] = Inhibition of alpha-glucosidase (unknown origin) using PNP glycoside as substrate preincubated for 30 mins followed by substrate addition and measured after 1 min by spectrophotometric analysis; parameters: species or system Homo sapiens
[5] = Inhibition of alpha-glucosidase (unknown origin); parameters: species or system Homo sapiens
Homo sapiens [6] = organism: Homo sapiens; assay: Inhibition of alpha-glucosidase (unknown origin) relative to control; conditions: concentration not given here
Alpha-glucosidase [7] = target: T1, Alpha-glucosidase; assay: Inhibition of Saccharomyces cerevisiae alpha-glucosidase using p-nitrophenyl-alpha-D-glucopyranoside as substrate preincubated for 10 mins followed by substrate addition and measured after 20 mins by absorbance based analysis; format: protein assay
Alpha-glucosidase [8] = target: T1, Alpha-glucosidase; assay: Competitive inhibition of Saccharomyces cerevisiae alpha-glucosidase using p-nitrophenyl-alpha-D-glucopyranoside as substrate assessed as inhibition constant preincubated for 10 mins followed by substrate addition and measured after 20 mins by absorbance based analysis; format: protein assay
Alpha-glucosidase [9] = target: T1, Alpha-glucosidase; assay: Inhibition of Saccharomyces cerevisiae alpha-glucosidase using pNPG as substrate preincubated for 10 mins followed by substrate addition and measured after 20 mins by spectrophotometric analysis; format: protein assay
Alpha-glucosidase [10] = target: T1, Alpha-glucosidase; assay: Competitive inhibition of Saccharomyces cerevisiae alpha-glucosidase using pNPG as substrate assessed as inhibition constant preincubated for 10 mins followed by substrate addition and measured after 20 mins by spectrophotometric analysis; format: protein assay
[11] = target: T2, Alpha-glucosidase (Saccharomyces cerevisiae S288c) (UniProt P53341+P38158+P07265); assay: Potency index, ratio of acarbose IC50 to test compound IC50 for inhibition of Saccharomyces cerevisiae alpha-glucosidase using pNPG as substrate preincubated for 10 mins followed by substrate addition and measured after 20 mins by spectrophotometric analysis; format: protein assay; conditions: time 30.0 min
Alpha-glucosidase [12] = target: T1, Alpha-glucosidase; assay: Inhibition of Saccharomyces cerevisiae alpha-glucosidase using p-nitrophenyl-alpha-D-glucopyranoside as substrate preincubated for 5 mins followed by substrate addition and measured after 30 mins by absorbance based microplate reader analysis; format: protein assay
[13] = Inhibition of alpha-glucosidase (unknown origin) using p-NPG as substrate preincubated for 5 mins followed by substrate addition and measured after 30 mins by absorbance based analysis; parameters: species or system Homo sapiens
Homo sapiens [14] = organism: Homo sapiens; assay: Potency index, ratio of acarbose IC50 to test compound IC50 for inhibition of alpha-glucosidase (unknown origin) using p-NPG as substrate preincubated for 5 mins followed by substrate addition and measured after 30 mins by absorbance based analysis; conditions: time 35.0 min
Alpha-glucosidase [15] = target: T1, Alpha-glucosidase; assay: (§1) Inhibition of Saccharomyces cerevisiae recombinant alpha-glucosidase using p-nitrophenyl-alpha-D-glucopyranoside as substrate preincubated for 15 mins followed by substrate addition and measured after 30 mins by microplate reader based analysis; format: protein assay
[16] = target: T2, Alpha-glucosidase (Saccharomyces cerevisiae S288c); assay: as §1, with “Potency index, ratio of acarbose IC50 to test compound IC50 for inhibition” for “Inhibition”; format: protein assay; conditions: time 45.0 min
[17] = Inhibition of Saccharomyces cerevisiae alpha-glucosidase type I using p-nitrophenyl-alpha-D-glucopyranoside as substrate preincubated for 10 mins followed by substrate addition and measured after 30 mins by absorbance based analysis
Saccharomyces cerevisiae = assay: Potency index, ratio of acarbose IC50 to test compound IC50 for inhibition of Saccharomyces cerevisiae alpha-glucosidase type I using p-nitrophenyl-alpha-D-glucopyranoside as substrate preincubated for 10 mins followed by substrate addition and measured after 30 mins by absorbance based analysis; conditions: time 40.0 min
[18] = Competitive inhibition of alpha-glucosidase (unknown origin) assessed as inhibition constant; parameters: species or system Homo sapiens
[19] = Inhibition of alpha-glucosidase (unknown origin) using p-nitrophenyl-alpha-D-glucopyranoside as substrate preincubated for 20 mins followed by substrate addition and measured after 30 mins by UV-visible spectrophotometric analysis; parameters: species or system Homo sapiens
Alpha-glucosidase [20] = target: T1, Alpha-glucosidase; assay: Inhibition of Saccharomyces cerevisiae alpha-glucosidase using p-nitrophenyl-alpha-D-glucopyranoside as substrate preincubated for 15 mins followed by substrate addition and measured after 30 mins by multiplate reader analysis; format: protein assay
Alpha-glucosidase [21] = target: T1, Alpha-glucosidase; assay: Non-competitive inhibition of Saccharomyces cerevisiae alpha-glucosidase using p-nitrophenyl-alpha-D-glucopyranoside as substrate assessed as inhibition constant preincubated for 15 mins followed by substrate addition and measured after 30 mins by multiplate reader analysis; format: protein assay
[22] = Inhibition of rat intestinal alpha-glucosidase
[23] = Inhibition of rat intestinal alpha-glucosidase assessed as inhibition constant
Alpha-glucosidase [24] = target: T1, Alpha-glucosidase; assay: Inhibition of Saccharomyces cerevisiae alpha-glucosidase using p-nitrophenyl-alpha-D-glucopyranoside as substrate preincubated for 20 mins followed by substrate addition and measured after 30 mins by spectrophotometric analysis; format: protein assay
[25] = Inhibition of alpha-glucosidase (unknown origin) using p-nitrophenyl glucopyranoside as substrate preincubated for 10 mins followed by substrate addition and measured after 30 mins by absorbance based analysis; parameters: species or system Homo sapiens
Homo sapiens [26] = organism: Homo sapiens; assay: Potency index, ratio of acarbose IC50 to test compound IC50 for inhibition of alpha-glucosidase (unknown origin) using p-nitrophenyl glucopyranoside as substrate preincubated for 10 mins followed by substrate addition and measured after 30 mins by absorbance based analysis; conditions: time 40.0 min
Rattus norvegicus = organism: Rattus norvegicus; assay: Anti-hyperglycemic activity against STZ-induced hyperglycemic rat model assessed as reduction in blood glucose level relative to control; format: functional; parameters: scale not given: the % may be the effect or the level left

Compound `Brc1cccc(CSc2nnc(-c3ccc4nc(-c5ccccc5)c(-c5ccccc5)nc4c3)o2)c1` has an IC50 (Alpha-glucosidase [1]) of 0.02847 µM.
Compound `COc1cc(-c2[nH]c3ccccc3c2/C=N/NC(=S)Nc2ccccc2)cc(OC)c1OC` has an IC50 (Alpha-glucosidase [2]) of 27 µM and a Ki (Alpha-glucosidase [3]) of 27 µM.
For `C(=N\Nc1nc(-c2ccc(-c3ccccc3)cc2)cs1)/c1cccc2ccccc12`, the pIC50 [4] was 5.21.
In the case of `Cc1ccc(NS(=O)(=O)c2ccc(-n3nnc4ccccc4c3=O)cc2)cc1C`, the pIC50 [5] was 4.53 and the inhibition (Homo sapiens [6]) was 94.5%.
With `Cc1ccc(NC(=O)Oc2ccc(-c3nc4ccccn4c3NC(C)(C)C)cc2)cc1` the IC50 (Alpha-glucosidase [7]) was 75.6 µM and the Ki (Alpha-glucosidase [8]) was 71 µM.
For `O=C(N/N=C/c1cn(-c2ccccc2)nc1-c1ccc([N+](=O)[O-])cc1)c1cc2ccccc2o1`, the IC50 (Alpha-glucosidase [9]) was 40.6 µM, the Ki (Alpha-glucosidase [10]) was 38 µM and the Ratio IC50 [11] was 18.
With `COc1cccc(NC(=O)Cn2nc3c(c2C)N(C)Sc2ccccc2-3)c1` the IC50 (Alpha-glucosidase [12]) was 5.8 µM.
Work on `Cc1ccccc1C(=O)/N=c1\scc(C)n1-c1cc(Cl)c(Cl)cc1Cl` yielded a pIC50 [13] of 6.82 and a Ratio IC50 (Homo sapiens [14]) of 255.
`Cn1cc(-c2nnc(-c3ccc(C(c4cn(Cl)c5ccccc45)c4cn(Cl)c5ccccc45)cc3)o2)c2ccccc21` gave an IC50 (Alpha-glucosidase [15]) of 2 µM and a Ratio IC50 [16] of 400.
In the case of `Cc1nn(-c2ccc(Nc3cccc(Cl)c3)nn2)c(C)c1[N+](=O)[O-]`, the pIC50 [17] was 4.72 and the Ratio IC50 (Saccharomyces cerevisiae) was 1.98.
For `Cn1cnnc1SC(=O)c1ccc(-c2ccccc2Cl)o1`, the pIC50 [5] was 5.66 and the pKi [18] was 5.29.
`CCOC(=O)c1c(C)n(C2CC2)c2ccc(OCc3nnc(-c4ccc(O)cc4)[nH]3)cc12` showed a pIC50 [19] of 4.52.
With `Oc1ccc(Br)cc1-c1nc2cc(Cl)ccc2s1` the IC50 (Alpha-glucosidase [20]) was 22.1 µM and the Ki (Alpha-glucosidase [21]) was 16.03 µM.
In the case of `N[C@H]1[C@H](O)[C@@H](O)[C@H](O)[C@@H](CO)[C@@H]1CCO`, the pIC50 [22] was 5.24 and the pKi [23] was 5.20.
For `CC(C)=C(C)CSc1nnc(-c2cc(OCC(F)(F)F)ccc2OCC(F)(F)F)o1`, the IC50 (Alpha-glucosidase [24]) was 46.01 µM.
`O=C(NNS(=O)(=O)c1cc(Cl)c(Cl)cc1Cl)c1ccc2[nH]cc(C(c3ccccc3)c3c[nH]c4ccc(C(=O)NNS(=O)(=O)c5cc(Cl)c(Cl)cc5Cl)cc34)c2c1` showed a pIC50 [25] of 7.00 and a Ratio IC50 (Homo sapiens [26]) of 8500.
`COc1ccc(-n2c(SCC(=O)N/N=C/c3ccc(O)cc3)nc3ccccc3c2=O)cc1` gave a pIC50 [5] of 3.25 and an Activity (Rattus norvegicus) of 43.07%.
